Measured values as given in article PMC6145916, “Interaction of mitochondrial fission factor with dynamin related protein 1 governs physiological mitochondrial function in vivo” (Scientific Reports, 2018).
Where no end group is shown, it is not given here.

Key:
Mff-Drp1 interaction = experiment: Co-immunoprecipitation of recombinant Drp1 with Mff; assay type: binding, human; conditions: 1 µM P259, 2 hours at 4 °C, 200 ng Drp1, 200 ng adaptor, RIPA buffer; representative blot of two independent experiments
From the text: Figure 1 Rational peptide design identifies a novel inhibitor of the Mff-Drp1 protein-protein interaction. (a) A scheme of the rationale behind the inhibitor design. […] Surface and ribbon diagrams of Drp1 structure (PDB, 4BEJ) with the GTPase, bundle signaling element (BSE), and stalk domains highlighted. (d) A heatmap representing sequence conservation of human proteins that contain a region similar to P259. Sequence conservation corresponds to the number of residues similar/identical to P259 from each sequence. […] The obtained graph is of the mean standardized response and ± s.e. as a function of time for n = 3 individual experiments, with 3 technical replicates each. […]
Protein binding to the surface was obtained through current measurements during a voltage sweep by a potentiostat. […] After calibration with 30 µL RIPA buffer for 3 minutes, […] of 100 nM protein was incubated over the surface for 3 minutes as sensor response w as measured. Disso ciation was measured by re-applying 30 µL of RIPA buffer. […]
The standardized response value was calculated by the following equation: […]
KD values were subsequently calculated using the binding and dissociation curves and the analysis software provided by the manufacturer (Nanomedical Diagnostics). […]
Protein content was measured using Bradford protein assay dye (Bio-Rad, CA, USA) and subsequently standardized. […]

primary cortical neurons = experiment: Mitochondrial membrane potential (TMRM), primary cortical neurons; assay type: cell-based, rat; conditions: overnight treatment; n = 3, with 3 replicates
Description: Bottom, quantification of the form factor (degree of branching) and aspect ratio (major/minor axis length). At least 10,000 mitochondrial fragments were analyzed for each condition. Mitochondrial reactive oxygen species production (MitoSox Red) (b) and membrane potential (TMRM) (c) after overnight treatment with indicated concentrations of peptide (n = 3, with 3 replicates). […] Overlay of live microscopy imaging at time 0 (green) and 150 (red) seconds. […] An estimation of the % mobile mitochondria from the Pearson coefficient of each set of images. Data are mean ± s.e.
Following treatment, cells were washed with treatment media.
The Cy5 filter was used to autofocus on the mitochondria plane. Nuclei were imaged with a DAPI filter and the mitoROS (MitoSox) or membrane potential (TMRM) image was acquired with a TRITC filter. […] MitoROS was calculated as the average MitoSox signal per cell. The mitochondrial membrane potential was calculated as the average TMRM signal in the mitochondrial mask.
Mitochondrial reactive oxygen species determination […]
and 1% penicillin-streptomycin solution (Corning, NY, USA). Primary cortical neurons were treated with increasing concentrations of peptides in NbActiv1 media. HD Patient- and adult- […]
and without phenol red. […] After incubation
HEPES, and without phenol red. […]
calculated as the average MitoSox signal per cell. […]

YGRKKRRQRRRGSGIIQLPEIVVV-NH2 (C-terminus assumed) [P259]
Mff binding to co-immunoprecipitated recombinant Drp1 (Mff-Drp1 interaction): abolished Mff binding | mitochondrial membrane potential (primary cortical neurons): decreased membrane potential
